Where a name gives a salt, the structure may show the parent alone.
Key:
HCT-116 cells [1] = assay: Test for inhibiting sphere-forming ability of cancer cells (in the presence of BSA); type: cell-based; conditions: HCT-116 spheres, non-adherent, 5% BSA, 4 days, CellTiter-Glo, read-out: IC50 (Sphere IC50 value; concentration for 50% inhibition of cell proliferation)
Description: HCT-116 cells were available from the American Type Culture Collection (ATCC). HCT-116 cells were cultured at 37° C. and 5% CO2 using the McCoy's 5a medium containing 10% fetal bovine serum (FBS) and 1% penicillin/streptomycin. HCT-116 cells were seeded in a 384 Well Black Clear Bottom Ultra-Low Attachment Microplate (Corning Cat. No. 3827) in an amount of 350-800 cells/well using the DMEM/F12 medium containing 2% B27 supplement (GIBCO), 20 ng/mL epidermal growth factor (EGF) (peprotech), 10 ng/mL basic fibroblast growth factor (bFGF) (peprotech), 5 μg/mL insulin (Sigma), 5% bovine serum albumin (BSA), and 1% penicillin/streptomycin. The test compounds were added into each well to adjust the final concentration of DMSO to 0.1%, and the cells were cultured for 4 days. The number of viable cells in each well was then measured with CellTiter-Glo® Luminescent Cell Viability Assay (Promega) to calculate the concentration of each test compound for 50% inhibition of cell proliferation (Sphere IC50 value; μmol/L).
The experiment of Test Example 2 was performed for the compounds of each Example. The concentrations of each test compound for 50% inhibition of cell profeliration (Sphere IC50 value; μmol/L) are shown in the following Table.

HCT-116 cells [2] = assay: Test for inhibiting sphere-forming ability of cancer cells; type: cell-based; conditions: HCT-116 spheres, non-adherent, serum-free, 4 days, CellTiter-Glo, read-out: IC50 (Sphere IC50 value; concentration for 50% inhibition of cell proliferation)
Description: The reliable methods established for measuring the self-renewal ability of cells which is one of the CSC's properties include a method for measuring the sphere-forming ability of cancer cells in non-adherent condition in the absence of serum (Cancer Res 65, 5506-5511 (2005)). HCT-116 cells were available from the American Type Culture Collection (ATCC). HCT-116 cells were cultured at 37° C. and 5% CO2 using the McCoy's 5a medium containing 10% fetal bovine serum (FBS) and 1% penicillin/streptomycin. HCT-116 cells were seeded in a 384 Well Black Clear Bottom Ultra-Low Attachment Microplate (Corning Cat. No. 3827) in an amount of 350-800 cells/well using the DMEM/F12 medium containing 2% B27 supplement (GIBCO), 20 ng/mL epidermal growth factor (EGF) (peprotech), 10 ng/mL basic fibroblast growth factor (bFGF) (peprotech), 5 μg/mL insulin (Sigma), and 1% penicillin/streptomycin. The test compounds were added into each well to adjust the final concentration of DMSO to 0.1%, and the cells were cultured for 4 days. The number of viable cells in each well was then measured with CellTiter-Glo® Luminescent Cell Viability Assay (Promega) to calculate the concentration of each test compound for 50% inhibition of cell proliferation (Sphere IC50 value; μmol/L).
The experiment of Test Example 1 was performed for the compounds of each Example. The concentrations of each test compound for 50% inhibition of cell profeliration (Sphere IC50 value; μmol/L) are shown in the following Table.

SMILES | IC50 (HCT-116 cells [1]; Homo sapiens, HCT-116, 96 h) [nM] | IC50 (HCT-116 cells [2]; Homo sapiens, 96 h) [nM] | IC50 (HCT-116 cells [1]) [nM] | IC50 (HCT-116 cells [2]) [nM]
O=C(Nc1cn(Cc2cccc(C(F)(F)F)c2)cn1)c1cc2c(s1)CCNC2 [Example 16] | 6000 | 5850 | – | –
O=C(Nc1cn(Cc2cccc(C(F)(F)F)c2)cn1)c1nc2c(s1)CCNC2 [Example 20] | – | 65200 | – | –
Cc1c(NC(=O)c2ccc3c(c2)CCNC3)ncn1Cc1cccc(C(F)(F)F)c1 [Example 21] | 6190 | 6200 | – | –
O=C(Nc1cn(Cc2cccc(C(F)(F)F)c2)cn1)c1ccc2c(c1)CCOC2 [Example 23] | – | 4940 | – | –
O=C(Nc1cn(Cc2cccc(C(F)(F)F)c2)cn1)c1ccc2c(c1)CCCN2 [Example 27] | 6010 | 690 | – | –
CN1CCc2cc(C(=O)Nc3cn(Cc4cccc(C(F)(F)F)c4)cn3)ccc2C1 [Example 30, 2-Methyl-N-{1-[3-(trifluoromethyl)benzyl]-1H-imidazol-4-yl}-1,2,3,4-tetrahydroisoquinoline-6-carboxamide] | – | 6160 | – | –
CC1(C)CNCc2ccc(C(=O)Nc3cn(Cc4cccc(C(F)(F)F)c4)cn3)cc21 [Example 32] | – | 72300 | – | –
O=C(Nc1cn(Cc2cccc(C(F)(F)F)c2)cn1)c1ccc2c(c1)CNC2 [Example 33] | – | 1480 | – | –
O=C(/C=C/c1ccc2c(c1)OCCO2)Nc1cn(Cc2cccc(Cl)c2)cn1 [Example 39] | 790 | 910 | – | –
O=C(Nc1cn(Cc2cccc(Cl)c2)cn1)c1cnc2c(c1)CCNC2 [Example 43] | 540 | 720 | – | –
O=C(Nc1cn(Cc2cccc(Cl)c2)cn1)c1ccc2c(n1)CCNC2 [Example 44] | 580 | 780 | – | –
O=C(Nc1cn(Cc2cccc(Cl)c2)cn1)c1ccc2c(c1)CCNC2 [Example 45] | 660 | 820 | – | –
O=C(Nc1cn(Cc2ccccc2F)cn1)c1cnc2c(c1)CCNC2 [Example 46] | – | – | 440 | 750
Nc1cccc(Cn2cnc(NC(=O)c3cnc4c(c3)CCNC4)c2)c1 [Example 67] | – | – | 8520 | –
COc1ccc(Cn2cnc(NC(=O)c3ccc4c(c3)CCNC4)c2)cc1 [Example 84] | – | – | – | 6780
O=C(Nc1cn(Cc2cccc(O)c2)cn1)c1ccc2c(c1)CCNC2 [Example 107] | 6340 | – | – | –
CC(=O)N1CCc2cc(C(=O)Nc3cn(Cc4cccc(C(F)(F)F)c4)cn3)ccc2C1 [Example 108, 2-Acetyl-N-{1-[3-(trifluoromethyl)benzyl]-1H-imidazol-4-yl}-1,2,3,4-tetrahydroisoquinoline-6-carboxamide trifluoroacetate] | – | 6630 | – | –
O=C(Nc1cn(Cc2cccc(C(F)(F)F)c2)cn1)c1ccc2c(c1)CCC1(C2)OCCO1 [Example 109, N-{1-[3-(Trifluoromethyl)benzyl]-1H-imidazol-4-yl}-3′,4′-dihydro-1′H-spiro[1,3-dioxolane-2,2′-naphthalene]-6′-carboxamide] | – | 7070 | – | –
O=C(Nc1cn(CC2CCOCC2)cn1)c1cnc2c(c1)CCNC2 [Example 118] | – | – | 6180 | –

The remaining molecules from weak to strong by IC50 (HCT-116 cells [2]; Homo sapiens, 96 h), led by results:

IC50 (HCT-116 cells [1]; Homo sapiens, HCT-116, 96 h) [nM] | IC50 (HCT-116 cells [2]; Homo sapiens, 96 h) [nM] | IC50 (HCT-116 cells [1]) [nM] | IC50 (HCT-116 cells [2]) [nM] | SMILES
700 | 670 | – | – | O=C(Nc1cn(Cc2cccc(C(F)(F)F)c2)cn1)c1ccc2c(c1)CNCC2 [Example 18]
490 | 660 | – | – | O=C(Nc1cc2c(cc1F)CNCC2)c1cn(Cc2ccc(F)c(F)c2)cn1 [Example 2]
560 | 660 | – | – | O=C(Nc1ccc2c(c1)CCNC2)c1cn(Cc2cc(F)c(F)c(F)c2)cn1 [Example 4, N-(1,2,3,4-tetrahydroisoquinolin-6-yl)-1-(3,4,5-trifluorobenzyl)-1H-imidazole-4-carboxamide]
720 | 620 | – | – | O=C(Nc1cn(Cc2cccc(C(F)(F)F)c2)cn1)c1cc2c(s1)CNCC2 [Example 17]
670 | 520 | – | – | O=C1Nc2cc(C(=O)Nc3cn(Cc4cccc(C(F)(F)F)c4)cn3)cnc2CO1 [Example 24]
460 | 430 | – | – | O=C(Nc1cn(Cc2cc(F)c(F)c(F)c2)cn1)c1ccc2c(c1F)CCNC2 [Example 14]
610 | 390 | – | – | O=C(Nc1cn(Cc2cc(F)c(F)c(F)c2)cn1)c1cc2c(cc1F)CNCC2 [Example 7]
550 | 360 | – | – | O=C(Nc1cn(Cc2cccc(C(F)(F)F)c2)cn1)c1ccc2c(c1F)CCNC2 [Example 15]
580 | 200 | – | – | Cc1nc(NC(=O)c2ccc3c(c2)CCNC3)cn1Cc1cccc(C(F)(F)F)c1 [Example 22]
440 | 90 | – | – | O=C(Nc1cn(Cc2cc(F)c(F)c(F)c2)cn1)c1cc2c(cn1)CNCC2 [Example 8, N-[1-(3,4,5-trifluorobenzyl)-1H-imidazol-4-yl]-5,6,7,8-tetrahydro-2,7-naphthyridine-3-carboxamide]
590 | 90 | – | – | O=C1CCc2cc(C(=O)Nc3cn(Cc4cc(F)c(F)c(F)c4)cn3)ccc2N1 [Example 37]
170 | 80 | – | – | O=C(Nc1cc2c(cc1F)CNCC2)c1cn(Cc2cc(F)c(F)c(F)c2)cn1 [Example 1, N-(7-fluoro-1,2,3,4-tetrahydroisoquinolin-6-yl)-1-(3,4,5-trifluorobenzyl)-1H-imidazole-4-carboxamide]
100 | 80 | – | – | O=C(Nc1cn(Cc2cccc(C(F)(F)F)c2)cn1)c1ccc2c(c1)CCNC2 [Example 26]
50 | 80 | – | – | O=C(Nc1cc2c(cn1)CNCC2)c1cn(Cc2ccc(F)c(F)c2)cn1 [Example 35, 1-(3,4-difluorobenzyl)-N-(5,6,7,8-tetrahydro-2,7-naphthyridin-3-yl)-1H-imidazole-4-carboxamide]
70 | 80 | – | – | O=C(/C=C/c1ccc2c(c1)OC(F)(F)O2)Nc1cn(Cc2cccc(Cl)c2)cn1 [Example 40]
50 | 80 | – | – | O=C(Nc1cn(Cc2cc(F)cc(F)c2)cn1)c1cnc2c(c1)CCNC2 [Example 47, N-[1-(3,5-difluorobenzyl)-1H-imidazol-4-yl]-5,6,7,8-tetrahydro-1,7-naphthyridine-3-carboxamide]
60 | 80 | – | – | O=C(Nc1cn(Cc2ccc(F)c(F)c2)cn1)c1cnc2c(c1)CCNC2 [Example 48, N-[1-(3,4-difluorobenzyl)-1H-imidazol-4-yl]-5,6,7,8-tetrahydro-1,7-naphthyridine-3-carboxamide]
500 | 70 | – | – | O=C(Nc1cn(Cc2cccc(C(F)(F)F)c2)cn1)c1cc2c(cn1)CNCC2 [Example 9, N-{1-[3-(trifluoromethyl)benzyl]-1H-imidazol-4-yl}-5,6,7,8-tetrahydro-2,7-naphthyridine-3-carboxamide]
90 | 70 | – | – | O=C(/C=C/c1ccc2c(c1)OCO2)Nc1cn(Cc2cccc(Cl)c2)cn1 [Example 38]
70 | 70 | – | – | O=C(Nc1cn(Cc2cccc(OC(F)(F)F)c2)cn1)c1cnc2c(c1)CCNC2 [Example 49, N-{1-[3-(trifluoromethoxy)benzyl]-1H-imidazol-4-yl}-5,6,7,8-tetrahydro-1,7-naphthyridine-3-carboxamide]
90 | 60 | – | – | O=C(Nc1cn(Cc2cc(F)c(F)c(F)c2)cn1)c1ccc2c(c1)CCNC2 [Example 25, N-[1-(3,4,5-Trifluorobenzyl)-1H-imidazol-4-yl]-(1,2,3,4-tetrahydroisoquinoline-6-carboxamide ditrifluoroacetate]
660 | 50 | – | – | O=C(Nc1cn(Cc2cccc(Oc3ccccc3)c2)cn1)c1cnc2c(c1)CCNC2 [Example 50, N-[1-(3-phenoxybenzyl)-1H-imidazol-4-yl]-5,6,7,8-tetrahydro-1,7-naphthyridine-3-carboxamide]
20 | 10 | – | – | O=C(/C=C/c1ccc2c(c1)CCO2)Nc1cn(Cc2cccc(Cl)c2)cn1 [Example 41]
